{"source": "paper PMC4932617", "about": "(Meta Gene, 2016)", "key": {"[1]": {"details": "higher in poor than in extensive metabolizers; ref Klotz, 2006; cited from earlier work"}, "intra-gastric pH": {"tested_on": "intra-gastric pH", "assay": "Intra-gastric pH monitoring", "assay_type": "in vivo, human", "details": "for pH on Day 6: n=1; for Difference in intra-gastric pH between baseline and day 6: rapid and ultra-rapid metabolizers (CYP2C19*17 carriers)"}}, "data": [{"smiles": "COCCCOc1ccnc(C[S+]([O-])c2nc3ccccc3[nH]2)c1C", "note": "(stereo not drawn) [rabeprazole]", "values": [{"measurement": "AUC in poor metabolizers relative to extensive metabolizers", "setting": "[1]", "result": 4, "unit": "fold"}]}, {"smiles": "COc1ccc2nc([S@@+]([O-])Cc3ncc(C)c(OC)c3C)[nH]c2c1", "note": "[Esomeprazole]", "values": [{"measurement": "pH on Day 6", "setting": "intra-gastric pH; normal metabolizer, esomeprazole 40 mg/day for 5 days, baseline pH 0.40", "result": 3.40}, {"measurement": "Difference in intra-gastric pH between baseline and day 6", "setting": "intra-gastric pH; 40 mg/day for 5 days", "result": "noteworthy differences could not be observed"}, {"measurement": "pH on Day 6", "setting": "intra-gastric pH; rapid metabolizer, esomeprazole 40 mg/day for 5 days, baseline pH 1.25", "result": 1.20}]}, {"smiles": "COc1ccc2[nH]c([S+]([O-])Cc3ncc(C)c(OC)c3C)nc2c1", "note": "(stereo not drawn) [omeprazole]", "values": [{"measurement": "AUC in poor metabolizers relative to extensive metabolizers", "setting": "[1]", "result": 7.5, "unit": "fold"}]}, {"smiles": "COc1ccnc(C[S+]([O-])c2nc3ccc(OC(F)F)cc3[nH]2)c1OC", "note": "(stereo not drawn) [Pantoprazole]", "values": [{"measurement": "pH on Day 6", "setting": "intra-gastric pH; normal metabolizer, pantoprazole 40 mg/day for 5 days, baseline pH 1.50", "result": 4.10}, {"measurement": "Gastric acid suppression compared to esomeprazole", "setting": "intra-gastric pH; poor and intermediate metabolizers, 40 mg/day for 5 days", "result": "improved gastric acid suppression"}, {"measurement": "Difference in intra-gastric pH between baseline and day 6", "setting": "intra-gastric pH; 40 mg/day for 5 days", "result": "noteworthy differences could not be observed"}]}, {"smiles": "Cc1c(OCC(F)(F)F)ccnc1C[S+]([O-])c1nc2ccccc2[nH]1", "note": "(stereo not drawn) [lansoprazole]", "values": [{"measurement": "AUC in poor metabolizers relative to extensive metabolizers", "setting": "[1]", "result": 4.5, "unit": "fold"}]}]}
